In BindingDB's records for doi:10.1021/jm00129a003 (Abbott Laboratories, 1989):

Assays:
[1] = biological target: T1, Gonadotropin-releasing hormone receptor (Rattus norvegicus, UniProt P30969); assay: Dissociation constant was determined in vitro using rat pituitary membranes and [125I]-leuprolide as radioligand, at concentration 3.16*10e-6 M
T1 sequence (P30969 whole entry): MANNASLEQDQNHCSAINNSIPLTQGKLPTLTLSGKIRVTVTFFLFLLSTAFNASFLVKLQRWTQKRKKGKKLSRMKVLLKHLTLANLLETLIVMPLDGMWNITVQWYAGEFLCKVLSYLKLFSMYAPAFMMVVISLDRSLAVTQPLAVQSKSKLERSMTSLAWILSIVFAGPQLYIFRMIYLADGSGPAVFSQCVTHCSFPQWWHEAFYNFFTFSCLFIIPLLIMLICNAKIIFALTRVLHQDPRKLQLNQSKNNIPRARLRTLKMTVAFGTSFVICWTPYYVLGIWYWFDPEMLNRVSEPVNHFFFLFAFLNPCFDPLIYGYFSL

[2] = biological target: T1, Gonadotropin-releasing hormone receptor; assay: Dissociation constant was determined in vitro using rat pituitary membranes, at concentration 1.0*10e-5 M

In the case of `CC(=O)N1CCN(c2ccc(OC[C@@H]3CO[C@@](Cn4ccnc4)(c4ccc(Cl)cc4Cl)O3)cc2)CC1` [Nizoral], the Kd [1] is reported as 221 nM and the Kd [2] is reported as 375 nM.
